Where “and” joins values, the source holds several entries; their conditions need not be identical. Equal values may be shown once.
Assay: molar heat capacity at constant pressure; xn = mol fraction of the nth substance listed
Settings: 100 kPa

[Si] [silicon] + [Li]
Settings | molar heat capacity at constant pressure
46.23 K, Crystal of intercomponent compound 2, relaxation calorimeter, x2 = 0.804 | 2.145 J/K/mol and 2.142 J/K/mol
48.69 K, Crystal of intercomponent compound 1, relaxation calorimetry, x2 = 0.81 | 2.259 J/K/mol
48.7 K, Crystal of intercomponent compound 2, relaxation calorimeter, x2 = 0.804 | 2.429 J/K/mol
48.72 K, Crystal of intercomponent compound 2, relaxation calorimeter, x2 = 0.804 | 2.429 J/K/mol
50 K, Crystal of intercomponent compound 1, relaxation calorimetry + DSC, x2 = 0.81 | 2.41 J/K/mol
50 K, Crystal of intercomponent compound 2, relaxation calorimetry + DSC, x2 = 0.804 | 2.61 J/K/mol
51.29 K, Crystal of intercomponent compound 1, relaxation calorimetry, x2 = 0.81 | 2.56 J/K/mol
51.3 K, Crystal of intercomponent compound 2, relaxation calorimeter, x2 = 0.804 | 2.74 J/K/mol
54.03 K, Crystal of intercomponent compound 1, relaxation calorimetry, x2 = 0.81 | 2.89 J/K/mol
54.03 K, Crystal of intercomponent compound 2, relaxation calorimeter, x2 = 0.804 | 3.08 J/K/mol
54.04 K, Crystal of intercomponent compound 2, relaxation calorimeter, x2 = 0.804 | 3.08 J/K/mol
56.91 K, Crystal of intercomponent compound 1, relaxation calorimetry, x2 = 0.81 | 3.26 J/K/mol
56.92 K, Crystal of intercomponent compound 2, relaxation calorimeter, x2 = 0.804 | 3.45 J/K/mol
59.95 K, Crystal of intercomponent compound 1, relaxation calorimetry, x2 = 0.81 | 3.65 J/K/mol
59.96 K, Crystal of intercomponent compound 2, relaxation calorimeter, x2 = 0.804 | 3.84 J/K/mol
60 K, Crystal of intercomponent compound 1, relaxation calorimetry + DSC, x2 = 0.81 | 3.63 J/K/mol
60 K, Crystal of intercomponent compound 2, relaxation calorimetry + DSC, x2 = 0.804 | 3.81 J/K/mol
63.15 K, Crystal of intercomponent compound 1, relaxation calorimetry, x2 = 0.81 | 4.08 J/K/mol
63.17 K, Crystal of intercomponent compound 2, relaxation calorimeter, x2 = 0.804 | 4.27 J/K/mol
63.18 K, Crystal of intercomponent compound 2, relaxation calorimeter, x2 = 0.804 | 4.27 J/K/mol
66.53 K, Crystal of intercomponent compound 1, relaxation calorimetry, x2 = 0.81 | 4.52 J/K/mol
66.54 K, Crystal of intercomponent compound 2, relaxation calorimeter, x2 = 0.804 | 4.72 J/K/mol
66.55 K, Crystal of intercomponent compound 2, relaxation calorimeter, x2 = 0.804 | 4.73 J/K/mol
70 K, Crystal of intercomponent compound 1, relaxation calorimetry + DSC, x2 = 0.81 | 5.02 J/K/mol
70 K, Crystal of intercomponent compound 2, relaxation calorimetry + DSC, x2 = 0.804 | 5.21 J/K/mol
70.08 K, Crystal of intercomponent compound 1, relaxation calorimetry, x2 = 0.81 | 5.02 J/K/mol
70.1 K, Crystal of intercomponent compound 2, relaxation calorimeter, x2 = 0.804 | 5.22 J/K/mol
70.11 K, Crystal of intercomponent compound 2, relaxation calorimeter, x2 = 0.804 | 5.22 J/K/mol
73.83 K, Crystal of intercomponent compound 1, relaxation calorimetry, x2 = 0.81 | 5.54 J/K/mol
73.84 K, Crystal of intercomponent compound 2, relaxation calorimeter, x2 = 0.804 | 5.75 J/K/mol
73.86 K, Crystal of intercomponent compound 2, relaxation calorimeter, x2 = 0.804 | 5.75 J/K/mol
77.77 K, Crystal of intercomponent compound 1, relaxation calorimetry, x2 = 0.81 | 6.09 J/K/mol
77.78 K, Crystal of intercomponent compound 2, relaxation calorimeter, x2 = 0.804 | 6.31 J/K/mol
77.8 K, Crystal of intercomponent compound 2, relaxation calorimeter, x2 = 0.804 | 6.32 J/K/mol
80 K, Crystal of intercomponent compound 1, relaxation calorimetry + DSC, x2 = 0.81 | 6.43 J/K/mol
80 K, Crystal of intercomponent compound 2, relaxation calorimetry + DSC, x2 = 0.804 | 6.65 J/K/mol
81.93 K, Crystal of intercomponent compound 1, relaxation calorimetry, x2 = 0.81 | 6.66 J/K/mol
81.94 K, Crystal of intercomponent compound 2, relaxation calorimeter, x2 = 0.804 | 6.9 J/K/mol
81.95 K, Crystal of intercomponent compound 2, relaxation calorimeter, x2 = 0.804 | 6.9 J/K/mol
86.31 K, Crystal of intercomponent compound 1, relaxation calorimetry, x2 = 0.81 | 7.27 J/K/mol
86.32 K, Crystal of intercomponent compound 2, relaxation calorimeter, x2 = 0.804 | 7.53 J/K/mol
86.33 K, Crystal of intercomponent compound 2, relaxation calorimeter, x2 = 0.804 | 7.53 J/K/mol
90 K, Crystal of intercomponent compound 1, relaxation calorimetry + DSC, x2 = 0.81 | 7.82 J/K/mol
90 K, Crystal of intercomponent compound 2, relaxation calorimetry + DSC, x2 = 0.804 | 8.08 J/K/mol
90.93 K, Crystal of intercomponent compound 1, relaxation calorimetry, x2 = 0.81 | 7.89 J/K/mol
90.93 K, Crystal of intercomponent compound 2, relaxation calorimeter, x2 = 0.804 | 8.14 J/K/mol
90.95 K, Crystal of intercomponent compound 2, relaxation calorimeter, x2 = 0.804 | 8.17 J/K/mol
91 K, Crystal of intercomponent compound 2, relaxation calorimeter, x2 = 0.804 | 8.16 J/K/mol
91.01 K, Crystal of intercomponent compound 1, relaxation calorimetry, x2 = 0.81 | 7.88 J/K/mol
91.02 K, Crystal of intercomponent compound 2, relaxation calorimeter, x2 = 0.804 | 8.18 J/K/mol
95.01 K, Crystal of intercomponent compound 1, relaxation calorimetry, x2 = 0.81 | 8.41 J/K/mol
95.02 K, Crystal of intercomponent compound 2, relaxation calorimeter, x2 = 0.804 | 8.71 J/K/mol
95.04 K, Crystal of intercomponent compound 2, relaxation calorimeter, x2 = 0.804 | 8.73 J/K/mol
99.06 K, Crystal of intercomponent compound 2, relaxation calorimeter, x2 = 0.804 | 9.29 J/K/mol
99.07 K, Crystal of intercomponent compound 1, relaxation calorimetry, x2 = 0.81 | 8.94 J/K/mol
99.08 K, Crystal of intercomponent compound 2, relaxation calorimeter, x2 = 0.804 | 9.32 J/K/mol
100 K, Crystal of intercomponent compound 1, relaxation calorimetry + DSC, x2 = 0.81 | 9.14 J/K/mol
100 K, Crystal of intercomponent compound 2, relaxation calorimetry + DSC, x2 = 0.804 | 9.44 J/K/mol
103.16 K, Crystal of intercomponent compound 1, relaxation calorimetry, x2 = 0.81 | 9.52 J/K/mol
103.16 K, Crystal of intercomponent compound 2, relaxation calorimeter, x2 = 0.804 | 9.83 J/K/mol
103.18 K, Crystal of intercomponent compound 2, relaxation calorimeter, x2 = 0.804 | 9.87 J/K/mol
107.24 K, Crystal of intercomponent compound 1, relaxation calorimetry, x2 = 0.81 | 10.04 J/K/mol
107.25 K, Crystal of intercomponent compound 2, relaxation calorimeter, x2 = 0.804 | 10.37 J/K/mol
107.26 K, Crystal of intercomponent compound 2, relaxation calorimeter, x2 = 0.804 | 10.4 J/K/mol
110 K, Crystal of intercomponent compound 1, relaxation calorimetry + DSC, x2 = 0.81 | 10.39 J/K/mol
110 K, Crystal of intercomponent compound 2, relaxation calorimetry + DSC, x2 = 0.804 | 10.73 J/K/mol
111.29 K, Crystal of intercomponent compound 1, relaxation calorimetry, x2 = 0.81 | 10.53 J/K/mol
111.29 K, Crystal of intercomponent compound 2, relaxation calorimeter, x2 = 0.804 | 10.88 J/K/mol
111.31 K, Crystal of intercomponent compound 2, relaxation calorimeter, x2 = 0.804 | 10.88 J/K/mol
115.39 K, Crystal of intercomponent compound 1, relaxation calorimetry, x2 = 0.81 | 11.05 J/K/mol
115.4 K, Crystal of intercomponent compound 2, relaxation calorimeter, x2 = 0.804 | 11.39 J/K/mol
115.41 K, Crystal of intercomponent compound 2, relaxation calorimeter, x2 = 0.804 | 11.41 J/K/mol
119.47 K, Crystal of intercomponent compound 1, relaxation calorimetry, x2 = 0.81 | 11.55 J/K/mol
119.47 K, Crystal of intercomponent compound 2, relaxation calorimeter, x2 = 0.804 | 11.87 J/K/mol
119.49 K, Crystal of intercomponent compound 2, relaxation calorimeter, x2 = 0.804 | 11.92 J/K/mol
120 K, Crystal of intercomponent compound 1, relaxation calorimetry + DSC, x2 = 0.81 | 11.56 J/K/mol
120 K, Crystal of intercomponent compound 2, relaxation calorimetry + DSC, x2 = 0.804 | 11.93 J/K/mol
123.51 K, Crystal of intercomponent compound 1, relaxation calorimetry, x2 = 0.81 | 12 J/K/mol
123.51 K, Crystal of intercomponent compound 2, relaxation calorimeter, x2 = 0.804 | 12.35 J/K/mol
123.53 K, Crystal of intercomponent compound 2, relaxation calorimeter, x2 = 0.804 | 12.4 J/K/mol
127.61 K, Crystal of intercomponent compound 1, relaxation calorimetry, x2 = 0.81 | 12.47 J/K/mol

From the NIST ThermoML archive (doi:10.1016/j.jct.2015.01.004)
